Biological target: T1, CSF-1R (colony-stimulating factor 1 receptor) (Homo sapiens, UniProt P07333)
T1 construct: gene CSF1R; CSF-1R kinase domain (AA 538–972), N-terminus 6HN-tagged, expressed in Sf21 cells
T1 sequence (P07333 538-972): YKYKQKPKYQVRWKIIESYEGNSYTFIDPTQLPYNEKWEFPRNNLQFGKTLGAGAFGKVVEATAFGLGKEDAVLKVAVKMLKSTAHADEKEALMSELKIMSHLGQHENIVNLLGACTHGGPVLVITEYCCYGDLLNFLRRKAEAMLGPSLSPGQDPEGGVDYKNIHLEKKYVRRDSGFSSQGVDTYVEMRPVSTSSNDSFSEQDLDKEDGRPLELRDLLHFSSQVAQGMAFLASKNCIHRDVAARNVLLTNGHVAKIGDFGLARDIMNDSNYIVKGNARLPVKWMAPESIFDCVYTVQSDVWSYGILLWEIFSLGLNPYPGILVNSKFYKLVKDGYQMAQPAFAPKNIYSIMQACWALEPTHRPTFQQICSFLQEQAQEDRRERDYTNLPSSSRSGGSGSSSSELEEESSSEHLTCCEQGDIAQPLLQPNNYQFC
Assay: HTRF KinEASE kinase assay with biotinylated poly(Glu4Tyr) peptide, […] ATP
Type: biochemical

Cc1ccc(NC(=O)c2ccc(CN3CCN(C)CC3)cc2)cc1Nc1nc(-c2cccnc2)cs1 [masitinib]
IC50: 90 ± 35 nM

Reference: paper PMC4940876, “Post-paralysis tyrosine kinase inhibition with masitinib abrogates neuroinflammation and slows disease progression in inherited amyotrophic lateral sclerosis” (Journal of Neuroinflammation, 2016)
